Measurements reported in ChEMBL document CHEMBL4613212, “Insights of synthetic analogues of anti-leprosy agents” (Bioorg Med Chem, 2019).
Values after ≈ are worked out from the molar mass of the structure shown.

Test system: Mycobacterium tuberculosis
Experiment: Antimycobacterial activity against Mycobacterium bovis BCG Pasteur incubated for 10 days by spectrophotometric based assay
Format: functional
Details: variant bovis BCG, 240 h

SMILES | MIC99 [µM]
CCCCCCOCC(CCC1CCCC1)C(=O)O (stereo not given) | 1100 (≈ 297 µg/mL)
CCCCCCCCC(CCC1CCCC1)C(=O)NCC (stereo not given) | 4400 (≈ 1300 µg/mL)
CCCCCCCCC(CCC1CCCC1)C(=O)OC (stereo not given) | 1500 (≈ 424 µg/mL)
CCCCCCCCC(CCC1CCCC1)C(N)=O (stereo not given) | 5400 (≈ 1440 µg/mL)
O=C1c2ccccc2C(=O)N1c1ccc(S(=O)(=O)Nc2ccncn2)cc1 | 1900 (≈ 723 µg/mL)
O=C1c2ccccc2C(=O)N1c1ccc(S(=O)(=O)Nc2cnccn2)cc1 | 1000 (≈ 380 µg/mL)
O=C1c2ccccc2C(=O)N1c1ccc(S(=O)(=O)Nc2ccccn2)cn1 | 1900 (≈ 723 µg/mL)
CCCCCCCCC(COC1CCCC1)C(=O)O (stereo not given) | 2200 (≈ 595 µg/mL)
CCCCCCCCC(CCC1CCCO1)C(=O)O (stereo not given) | 2500 (≈ 676 µg/mL)
CCCOCOCCC(CCC1CCCC1)C(=O)O (stereo not given) | 500 (≈ 136 µg/mL)
O=C1c2ccccc2C(=O)N1c1cnc(S(=O)(=O)Nc2ccccn2)cn1 | 900 (≈ 343 µg/mL)
CCCCCCCCC(CCC1CCCS1)C(=O)O (stereo not given) | 5400 (≈ 1550 µg/mL)
CCCCCCCCC(CCC1=CCC=C1)C(=O)O (stereo not given) | 6000 (≈ 1590 µg/mL)
O=C(O)C(CCCCCCCF)CCC1CCCC1 (stereo not given) | 1600 (≈ 436 µg/mL)
CCCCCCCCC(CCC1CCCN1)C(=O)O (stereo not given) | 5100 (≈ 1370 µg/mL)
